Data set [1] can be described thus: Plasma concentration of Tadalafil after a single dose (pharmacokinetics, FIG. 1). Particulars: male, human, in vivo, 20 mg.
Procedure: In both cases, a single dose of a pharmaceutical composition equivalent to 20 mg of tadalafil was administered to a test population of otherwise healthy subjects suffering from ED and the plasma concentration of Tadalafil was measured at intervals following the administration.
For data set [2] the following is noted: tadalafil as normally administered, typical value; cited from earlier work.

The term half-life denotes the time needed for the level to fall by half in the phase considered. As to `CN1CC(=O)N2[C@H](c3ccc4c(c3)OCO4)c3[nH]c4ccccc4c3C[C@@H]2C1=O` [Tadalafil, (6R,12aR)-6-(1,3-benzodioxol-5-yl)-2,3,6,7,12,12a-hexahydro-2-methylpyrazino[1′,2′:1,6]pyrido[3,4-b]indole-1,4-dione], the half-life in data set [1] is 17.5 h. Also, the “Half-life in the body” value in data set [2] was 17.5 h.

(Values after US20140199380A1, “PHARMACEUTICAL COMPOSITION COMPRISING AN ALGAE ADAPTED TO INCREASE THE EFFICACY OF AN ENZYMATIC INHIBITOR” (priority 2010, published 2014).)
